Publication PMC7660650, “Chemical Starting Matter for HNF4α Ligand Discovery and Chemogenomics” (International Journal of Molecular Sciences, 2020)

These molecules were tested against T1, Gal4-HNF4α (human HNF4α LBD) (Homo sapiens, UniProt P41235) (assay: Hybrid Gal4-HNF4α reporter gene assay in transiently transfected HEK293T cells). Details: not given.
T1 construct: uniprot entry: P41235-1, residues 142-377; expressed in transfected cells; host or cells: HEK293T
T1 sequence (P41235 142-377): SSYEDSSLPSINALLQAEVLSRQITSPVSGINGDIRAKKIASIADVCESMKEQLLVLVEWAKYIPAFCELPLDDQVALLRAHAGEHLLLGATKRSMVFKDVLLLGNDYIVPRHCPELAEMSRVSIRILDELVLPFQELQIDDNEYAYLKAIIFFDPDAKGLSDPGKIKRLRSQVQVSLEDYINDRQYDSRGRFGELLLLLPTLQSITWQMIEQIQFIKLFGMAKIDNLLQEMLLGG
Type: cell-based
With `c1ccc(C2COCCN2)cc1` (stereo not drawn) [Prestw-Frag-3705, C1COCC(N1)c1ccccc1] the “HNF4a-screening_activity_(mean_of_n=2)” value was 0.9945.

Same assay, conditions: Table S1, primary screening, 50 µM
For `OCCc1ccc(Cl)cc1` [Prestw-Frag-3062, OCCc1ccc(Cl)cc1], the “HNF4a-screening_activity_(mean_of_n=2)” value was 0.9659. With `O=C1c2ccc(Cl)cc2CCc2cccnc21` [Prestw-Frag-3073, Clc1ccc2c(CCc3cccnc3C2=O)c1] the “HNF4a-screening_activity_(mean_of_n=2)” value was 0.9858. `CCN(CC)C(=O)/C=C/c1ccccc1` [Prestw-Frag-3088, CCN(CC)C(=O)\C=C\c1ccccc1] was tested, and the “HNF4a-screening_activity_(mean_of_n=2)” value was 0.9663. `O=C(O)/C=C/c1cnc[nH]1` [Prestw-Frag-3090, OC(=O)\C=C\c1cnc[nH]1] was tested, and the “HNF4a-screening_activity_(mean_of_n=2)” value was 1.054. With `OCc1ccc(F)cc1F` [Prestw-Frag-3100, OCc1ccc(F)cc1F] the “HNF4a-screening_activity_(mean_of_n=2)” value was 0.9757. In the case of `OCCn1cncn1` [Prestw-Frag-3101, OCCn1cncn1], the “HNF4a-screening_activity_(mean_of_n=2)” value is reported as 0.9898. In the case of `CCCCc1nc(Cl)c(CO)[nH]1` [Prestw-Frag-3114, CCCCc1nc(Cl)c(CO)[nH]1], the “HNF4a-screening_activity_(mean_of_n=2)” value is reported as 0.9053. `CCN(CC)CCNC(=O)c1ccc(N)c(Cl)c1` [Prestw-Frag-3120, CCN(CC)CCNC(=O)c1ccc(N)c(Cl)c1] was tested, and the “HNF4a-screening_activity_(mean_of_n=2)” value was 1.18. For `c1ccc2c(c1)CCCN2` [Prestw-Frag-3137, C1CNc2ccccc2C1], the “HNF4a-screening_activity_(mean_of_n=2)” value was 0.9914. `Fc1cccnc1N1CCCC1` [Prestw-Frag-3150, Fc1cccnc1N1CCCC1] was tested, and the “HNF4a-screening_activity_(mean_of_n=2)” value was 1.041. `COc1ccc2c(c1)CCCC2` [Prestw-Frag-3188, COc1ccc2CCCCc2c1] was tested, and the “HNF4a-screening_activity_(mean_of_n=2)” value was 0.8877. In the case of `Nc1nc(N)nc(-c2ccccc2)n1` [Prestw-Frag-3190, Nc1nc(N)nc(n1)-c1ccccc1], the “HNF4a-screening_activity_(mean_of_n=2)” value is reported as 0.8184. `O=C(Cc1ccccc1F)C1CC1` [Prestw-Frag-3198, Fc1ccccc1CC(=O)C1CC1] was tested, and the “HNF4a-screening_activity_(mean_of_n=2)” value was 1.083. In the case of `Cc1ccccc1C(=O)Nc1ccccc1` [Prestw-Frag-3202, Cc1ccccc1C(=O)Nc1ccccc1], the “HNF4a-screening_activity_(mean_of_n=2)” value is reported as 1.357. For `Oc1ccccc1OCC(F)(F)F` [Prestw-Frag-3225, Oc1ccccc1OCC(F)(F)F], the “HNF4a-screening_activity_(mean_of_n=2)” value was 1.152. In the case of `Cc1cn(-c2cc(N)cc(C(F)(F)F)c2)cn1` [Prestw-Frag-3241, Cc1cn(cn1)-c1cc(N)cc(c1)C(F)(F)F], the “HNF4a-screening_activity_(mean_of_n=2)” value is reported as 1.061. In the case of `Cc1cc(C)nc(O)n1` [Prestw-Frag-3247, Cc1cc(C)nc(O)n1], the “HNF4a-screening_activity_(mean_of_n=2)” value is reported as 1.288. In the case of `O=C(O)CC(c1ccccc1)c1ccccc1` [Prestw-Frag-3250, OC(=O)CC(c1ccccc1)c1ccccc1], the “HNF4a-screening_activity_(mean_of_n=2)” value is reported as 1.055. `FC(F)(F)c1nnc2n1CCNC2` [Prestw-Frag-3253, FC(F)(F)c1nnc2CNCCn12] was tested, and the “HNF4a-screening_activity_(mean_of_n=2)” value was 1.371. With `c1ccc(N2CCN(c3ccccc3)CC2)cc1` [Prestw-Frag-3257, C1CN(CCN1c1ccccc1)c1ccccc1] the “HNF4a-screening_activity_(mean_of_n=2)” value was 1.063. For `CN1CCN(c2cc(N)ncn2)CC1` [Prestw-Frag-3262, CN1CCN(CC1)c1cc(N)ncn1], the “HNF4a-screening_activity_(mean_of_n=2)” value was 1.186. For `Nc1ccn([C@H]2C[C@H](O)[C@@H](CO)O2)c(=O)n1` [Prestw-Frag-3264, Nc1ccn([C@H]2C[C@H](O)[C@@H](CO)O2)c(=O)n1], the “HNF4a-screening_activity_(mean_of_n=2)” value was 1.086. In the case of `COc1ccc(S(=O)(=O)N2CCNCC2)cc1` [Prestw-Frag-3313, COc1ccc(cc1)S(=O)(=O)N1CCNCC1], the “HNF4a-screening_activity_(mean_of_n=2)” value is reported as 1.073. For `CCOc1ccccc1C(=N)N` [Prestw-Frag-3314, CCOc1ccccc1C(N)=N], the “HNF4a-screening_activity_(mean_of_n=2)” value was 1.051. `Nc1ncc([N+](=O)[O-])s1` [Prestw-Frag-3324, Nc1ncc(s1)[N+]([O-])=O] was tested, and the “HNF4a-screening_activity_(mean_of_n=2)” value was 0.8744. For `Nc1ncnc2c1ncn2CCO` [Prestw-Frag-3329, Nc1ncnc2n(CCO)cnc12], the “HNF4a-screening_activity_(mean_of_n=2)” value was 1.131. In the case of `O=C(c1ccc(C(F)(F)F)cc1)C1CCCCC1` [Prestw-Frag-3334, FC(F)(F)c1ccc(cc1)C(=O)C1CCCCC1], the “HNF4a-screening_activity_(mean_of_n=2)” value is reported as 1.014. `NC(=O)c1ccc2[nH]ccc2c1` [Prestw-Frag-3336, NC(=O)c1ccc2[nH]ccc2c1] was tested, and the “HNF4a-screening_activity_(mean_of_n=2)” value was 1.118. `Nc1ccc(CS(=O)(=O)N2CCCC2)cc1` [Prestw-Frag-3341, Nc1ccc(CS(=O)(=O)N2CCCC2)cc1] was tested, and the “HNF4a-screening_activity_(mean_of_n=2)” value was 1.256. With `COc1ccc(CC(C)N)cc1` (stereo not drawn) [Prestw-Frag-3342, COc1ccc(CC(C)N)cc1] the “HNF4a-screening_activity_(mean_of_n=2)” value was 1.446. In the case of `c1nc(NC2CC2)c2nc[nH]c2n1` [Prestw-Frag-3360, C1CC1Nc1ncnc2[nH]cnc12], the “HNF4a-screening_activity_(mean_of_n=2)” value is reported as 1.055. In the case of `CS(=O)(=O)NC(Cc1ccccc1)C(=O)O` (stereo not drawn) [Prestw-Frag-3362, CS(=O)(=O)NC(Cc1ccccc1)C(O)=O], the “HNF4a-screening_activity_(mean_of_n=2)” value is reported as 1.241. `CNS(=O)(=O)CCc1ccccc1` [Prestw-Frag-3368, CNS(=O)(=O)CCc1ccccc1] was tested, and the “HNF4a-screening_activity_(mean_of_n=2)” value was 1.162. With `COC(=O)CN1CCc2sccc2C1` [Prestw-Frag-3371, COC(=O)CN1CCc2sccc2C1] the “HNF4a-screening_activity_(mean_of_n=2)” value was 1.101. In the case of `CCOC(=O)c1cccnc1` [Prestw-Frag-3382, CCOC(=O)c1cccnc1], the “HNF4a-screening_activity_(mean_of_n=2)” value is reported as 1.112. In the case of `O=C(CCCN1CCNCC1)c1ccc(F)cc1` [Prestw-Frag-3426, Fc1ccc(cc1)C(=O)CCCN1CCNCC1], the “HNF4a-screening_activity_(mean_of_n=2)” value is reported as 1.191. For `CNCCN(C)C(c1ccccc1)c1ccccc1` [Prestw-Frag-3452, CNCCN(C)C(c1ccccc1)c1ccccc1], the “HNF4a-screening_activity_(mean_of_n=2)” value was 1.151. `COc1ccc(CCN)cc1OC` [Prestw-Frag-3454, COc1ccc(CCN)cc1OC] was tested, and the “HNF4a-screening_activity_(mean_of_n=2)” value was 1.113. `Oc1ccc(Cc2ccccc2)cc1` [Prestw-Frag-3455, Oc1ccc(Cc2ccccc2)cc1] was tested, and the “HNF4a-screening_activity_(mean_of_n=2)” value was 0.7887. `O=C1CNCCN1` [Prestw-Frag-3458, O=C1CNCCN1] was tested, and the “HNF4a-screening_activity_(mean_of_n=2)” value was 1.246. In the case of `O=C1CN(Cc2ccccc2)CCN1` [Prestw-Frag-3459, O=C1CN(Cc2ccccc2)CCN1], the “HNF4a-screening_activity_(mean_of_n=2)” value is reported as 1.076. With `CN1CCNCC1=O` [Prestw-Frag-3460, CN1CCNCC1=O] the “HNF4a-screening_activity_(mean_of_n=2)” value was 1.233. In the case of `Cn1cc(CC(=O)O)c2ccccc21` [Prestw-Frag-3461, Cn1cc(CC(O)=O)c2ccccc12], the “HNF4a-screening_activity_(mean_of_n=2)” value is reported as 1.168. In the case of `NC1CCc2ccccc21` (stereo not drawn) [Prestw-Frag-3462, NC1CCc2ccccc12], the “HNF4a-screening_activity_(mean_of_n=2)” value is reported as 1.151. With `O=C1COCCN1` [Prestw-Frag-3463, O=C1COCCN1] the “HNF4a-screening_activity_(mean_of_n=2)” value was 1.252. For `Cn1ccc(=O)[nH]1` [Prestw-Frag-3664, Cn1ccc(=O)[nH]1], the “HNF4a-screening_activity_(mean_of_n=2)” value was 1.182. For `O=C1Cc2cc(F)ccc2N1` [Prestw-Frag-3667, Fc1ccc2NC(=O)Cc2c1], the “HNF4a-screening_activity_(mean_of_n=2)” value was 0.8142. With `O=C(O)CC1CCCCC1` [Prestw-Frag-3668, OC(=O)CC1CCCCC1] the “HNF4a-screening_activity_(mean_of_n=2)” value was 0.9215. For `C#Cc1cccc(N)c1` [Prestw-Frag-3669, Nc1cccc(c1)C#C], the “HNF4a-screening_activity_(mean_of_n=2)” value was 1.159. In the case of `CN1CCN(c2ccc(N)cc2)CC1` [Prestw-Frag-3670, CN1CCN(CC1)c1ccc(N)cc1], the “HNF4a-screening_activity_(mean_of_n=2)” value is reported as 1.015. With `CCN1CCCC1CN` (stereo not drawn) [Prestw-Frag-3671, CCN1CCCC1CN] the “HNF4a-screening_activity_(mean_of_n=2)” value was 1.171. For `Fc1ccc(CN2CCNCC2)cc1` [Prestw-Frag-3673, Fc1ccc(CN2CCNCC2)cc1], the “HNF4a-screening_activity_(mean_of_n=2)” value was 1.124. `O=C(c1ccccc1)N1CCNCC1` [Prestw-Frag-3677, O=C(N1CCNCC1)c1ccccc1] was tested, and the “HNF4a-screening_activity_(mean_of_n=2)” value was 0.9693. `COc1ccc2[nH]cnc2c1` [Prestw-Frag-3678, COc1ccc2[nH]cnc2c1] was tested, and the “HNF4a-screening_activity_(mean_of_n=2)” value was 0.9895. In the case of `Nc1cnc2ccccc2n1` [Prestw-Frag-3679, Nc1cnc2ccccc2n1], the “HNF4a-screening_activity_(mean_of_n=2)” value is reported as 0.8882. For `O=C1CC2(CCCC2)CC(=O)N1` [Prestw-Frag-3680, O=C1CC2(CCCC2)CC(=O)N1], the “HNF4a-screening_activity_(mean_of_n=2)” value was 0.8965. `Nc1ccc2c(c1)CCCC2` [Prestw-Frag-3682, Nc1ccc2CCCCc2c1] was tested, and the “HNF4a-screening_activity_(mean_of_n=2)” value was 0.958. With `CC(=O)c1ccc2c(c1)OCO2` [Prestw-Frag-3686, CC(=O)c1ccc2OCOc2c1] the “HNF4a-screening_activity_(mean_of_n=2)” value was 0.9343. In the case of `NCc1ncc[nH]1` [Prestw-Frag-3689, NCc1ncc[nH]1], the “HNF4a-screening_activity_(mean_of_n=2)” value is reported as 0.8561. For `CNC(=O)c1c(-c2ccccc2)noc1C` [Prestw-Frag-3690, CNC(=O)c1c(C)onc1-c1ccccc1], the “HNF4a-screening_activity_(mean_of_n=2)” value was 0.8222. `CN1CCN(CCCC(=O)c2ccc(F)cc2)CC1` [Prestw-Frag-3692, CN1CCN(CCCC(=O)c2ccc(F)cc2)CC1] was tested, and the “HNF4a-screening_activity_(mean_of_n=2)” value was 1.385. With `CN(C)CCCC(=O)c1ccc(F)cc1` [Prestw-Frag-3693, CN(C)CCCC(=O)c1ccc(F)cc1] the “HNF4a-screening_activity_(mean_of_n=2)” value was 1.093. For `Oc1cccc2[nH]ccc12` [Prestw-Frag-3696, Oc1cccc2[nH]ccc12], the “HNF4a-screening_activity_(mean_of_n=2)” value was 0.9739. With `COc1cc2c(cc1OC)CC(=O)NCC2` [Prestw-Frag-3698, COc1cc2CCNC(=O)Cc2cc1OC] the “HNF4a-screening_activity_(mean_of_n=2)” value was 1.019. For `O=C1COc2cc(O)ccc21` [Prestw-Frag-3703, Oc1ccc2C(=O)COc2c1], the “HNF4a-screening_activity_(mean_of_n=2)” value was 1.217. For `CNC(=O)c1c(OC)ccc(Br)c1OC` [Prestw-Frag-3704, CNC(=O)c1c(OC)ccc(Br)c1OC], the “HNF4a-screening_activity_(mean_of_n=2)” value was 1.072. For `CC(C(=O)O)c1cccc(F)c1` (stereo not drawn) [Prestw-Frag-3706, CC(C(O)=O)c1cccc(F)c1], the “HNF4a-screening_activity_(mean_of_n=2)” value was 1.072. `NC1CCc2[nH]c3ccccc3c2C1` (stereo not drawn) [Prestw-Frag-3709, NC1CCc2[nH]c3ccccc3c2C1] was tested, and the “HNF4a-screening_activity_(mean_of_n=2)” value was 1.209. `O=C(O)C(c1ccccc1)c1ccccc1` [Prestw-Frag-3711, OC(=O)C(c1ccccc1)c1ccccc1] was tested, and the “HNF4a-screening_activity_(mean_of_n=2)” value was 1.082. `c1ccc(C2CCCNCC2)cc1` (stereo not drawn) [Prestw-Frag-3712, C1CNCCC(C1)c1ccccc1] was tested, and the “HNF4a-screening_activity_(mean_of_n=2)” value was 1.122. In the case of `Oc1ccc2c(c1)CCC2` [Prestw-Frag-3713, Oc1ccc2CCCc2c1], the “HNF4a-screening_activity_(mean_of_n=2)” value is reported as 1.011.
